Experimental data published in patent US20030138773A1, “METHODS OF TRANSCRIPTIONALLY MODULATING GENE EXPRESSION” (priority 1989, published 2003).

Columns and labels:
G-CSF mRNA = experiment: Northern blot of endogenous G-CSF mRNA in 5637 cells; format: cell-based, human; details: G-CSF-specific probe, compared to solvent DMSO, FIG. 46
Method: Total cellular RNA was isolated from the G21 cell clone or from untransfected 5637 cells following incubation for 6 hours with various transcriptionally modulating chemicals identified in the high-throughput screen. Cells were grown in serum free medium as described above. Total cellular RNA was isolated using the RNAZol method (CINNA/BIOTECX, Friendswood, Tex., Laboratories International, Inc.). Cells were resuspended and lysed with RNAZol solution (1.5 ml/9 cm petri dish) and the RNA was solubilized by passing the lysate a few times through a pipette. Chloroform was added to the homogenate (0.1 ml/1 ml), and samples were shaken for 15 seconds followed by a 5 minute incubation on ice. After centrifuging for 10 minutes, the upper phase was collected and an equal volume of isopropanol was added. Samples were incubated for 45 minutes at −20° C., and the RNA was pelleted for 15 minutes at 12,000×g at 4° C. The RNA pellet was then washed with 70% ethanol and dried briefly under vacuum.
Total cellular RNA was isolated from 5637 cells following incubation with chemicals as described above and electrophoresed in a 1% Agarose-1M Formaldehyde gel. […] Bands were excised and counted in a liquid scintillation counter (LKB, Gaithersburg, Md.), and counts obtained with the G-CSF specific probe were normalized relative to the counts obtained with the B-Actin specific probe.

[1] = test system: human growth hormone promoter; experiment: hGH promoter-luciferase reporter, cell clone 532 (high-throughput screen); format: cell-based; details: 100 nM; FIG. 42
From the text: A rat pituitary cell line, designated GC, (4, 25) was used for transfection of plasmids containing the human growth hormone promoter (see below) and was maintained in DMEM and Ham's F12 medium (1:1), supplemented with 12.5% FCS. For HTP screening, transfected GC clones were transferred to serum free defined medium consisting of DMEM and Ham's F12 medium (1:1) supplemented with growth factors, hormones and nutrients as described previously (17, 5).
The SalI-XhoI fragment of pSVLuci (FIG. 2) containing the luciferase coding sequences and the SV40 late polyadenylation site was inserted into pUC 8 (Biorad, Richmond, Calif.), which had been linearized by a SmaI/HinCII digestion and ligated to XhoI linkers (New England Biolabs, Beverly, Mass.). […]
(§1) To assay for luciferase expression in transient expression assays in the various transfected clones, cells were incubated with various transcriptional inducers in serum free defined media, washed 3 times with Dulbecco's phosphate-buffered saline (D-PBS, Gibco) and lysed in Lysis Buffer 1 (50 mM Tris acetate pH 7.9, 1 mM EGTA, 10 mM magnesium acetate, 1 mg/ml bovine serum albumin [BSA], 0.5% Brij 58, 2 mM ATP, 100 mM dithiothreitol [DTT]). […] Samples were counted individually in an LKB (Gaithersburg, Md.) scintillation counter on a setting which allows measurement of individual photons by switching off the coincidence circuit. […]

[2] = test system: mouse mammary tumor virus (MMTV) promoter; experiment: MMTV promoter-luciferase reporter, cell clone M10 (high-throughput screen); format: cell-based; details: for stimulation of the MMTV promoter in cell clone M10 by steroids: FIG. 43
From the text: NIH/3T3 fibroblast cells (ATCC number CRL 1658) were used for transfection of plasmids containing the mouse mammary tumor virus (MMTV) promoter linked to firefly luciferase coding sequences (see below). Cells were propagated in Dulbecco's modified Eagle's medium (DMEM) obtained from Gibco, Grand Island, N.Y. and supplemented with 10% FCS. For high-throughput (HTP) screening, transfected NIH/3T3 clones were transferred to serum free defined medium consisting of Iscove's modified Eagle's medium (IMEM) and Ham's F12 medium (1:1) supplemented with growth factors, hormones and nutrients as described previously (43).
The firefly luciferase gene was removed from the plant expression plasmid pDO432 (33) (FIG. 1) as a 1.9 kb BamHI fragment and cloned into the BamHI site of pSVL (Pharmacia, Piscataway, N.J.), a mammalian expression vector containing the SV40 promoter. The resulting plasmid (pSVLuci; FIG. 2) was digested with XhoI and SalI to produce a 2.4 kb fragment containing the luciferase coding sequences and the SV40 late polyadenylation site. This fragment was inserted into the XhoI site of pMSG (Pharmacia, Piscataway, N.J.), a eukaryotic expression vector containing the MMTV promoter. The resulting MMTV promoter-luciferase fusion plasmid (pMLuci; FIG. 3) was used to transfect NIH/3T3 cells as described below (section El). Similar constructs can be made using luciferase vectors from Clontech (Palo Alto, Calif.).
pMluci (FIG. 3) and pSV2Neo, an antibiotic resistance plasmid (34), were co-transfected into NIH/3T3 mouse fibroblast cells using the calcium phosphate precipitation method (15) with a commercially available kit (Pharmacia, Piscataway N.J.). […] Once sufficient cell numbers were obtained, clones were analyzed based on several criteria: constitutive luciferase production, induction of luciferase expression by dexamethasone (1 μM, Sigma, St. Louis, Mo.), satisfactory attachment to microtiter plates used in the high-throughput screen (see section G) and acceptable standard deviation in multiple luciferase expression assays (see below for assay protocol). […]

human G-CSF promoter = experiment: G-CSF promoter-luciferase reporter, cell clone G21 (high-throughput screen); format: cell-based; details: 5 μg/ml; FIG. 42
From the text: A human bladder carcinoma cell line (U5637, ATCC number HTB 9) was used for transfection of plasmids containing the human Granulocyte-Colony Stimulating Factor (G-CSF) promoter (see below) and was maintained in RPMI medium supplemented with 10% FCS. For HTP screening, transfected 5637 clones were transferred to a serum free defined medium identical to that used for the NIH/3T3 clones.
The sequences of OL-1, OL-2 and OL-5 recognize the G-CSF promoter region, OL-4 recognizes the first intron/exon junction and OL-3 recognizes sequences within the second exon (32). […]
as §1

Compound: IFN-gamma: a proteinaceous positive regulator
- production of endogenous G-CSF mRNA (G-CSF mRNA): increased

Compound: rat growth hormone releasing factor: known inducer of hGH expression (Bachem) (HADAIFTSSYRRILGQLYARKLLHEIMNRQQGERNQEQRSRFN; Somatoliberin; UniProt P09916 31-73, looked up)
- stimulation of luciferase expression, clone 532 [1]: 2.2 fold

Compound: C[C@]12CCC(=O)C=C1CC[C@@H]1[C@@H]2[C@@H](O)C[C@]2(C=O)[C@@H](C(=O)CO)CC[C@@H]12 [aldosterone]
- stimulation of the MMTV promoter in cell clone M10 by steroids [2]: stimulates

Compound: CC(=O)[C@H]1CC[C@H]2[C@@H]3CCC4=CC(=O)CC[C@]4(C)[C@H]3CC[C@]12C [progesterone]
- stimulation of the MMTV promoter in cell clone M10 by steroids [2]: did not

Compound: C[C@@H]1C[C@H]2[C@@H]3CCC4=CC(=O)C=C[C@]4(C)[C@@]3(F)[C@@H](O)C[C@]2(C)[C@@]1(O)C(=O)CO [dexamethasone]
- stimulation of luciferase expression, clone M10 ([2]; 1 μM, FIG. 42): 11.6 fold

Compound: lipopolysaccharide
- stimulation of luciferase expression, clone G21 (human G-CSF promoter): 5.7 fold
